Measured values published in US10144706B2 (BRISTOL-MYERS SQUIBB COMPANY, priority 2016, dated 2018).
Where two headings read alike, the source gives them in different places.

Biological target: T1, PD-1/PD-L1 interaction (PD-1-Ig / PD-L1-His) (Homo sapiens, UniProt Q9NZQ7)
T1 construct: hPDL1(18-239)-TVMV-His; TVMV protease site linker (C); made in house; host or cells: HEK293T
Experiment: PD-1/PD-L1 Homogenous Time-Resolved Fluorescence (HTRF) binding assay
Conditions: PD-L1-His 10 nM, PD-1-Ig 20 nM, read-out: Range or IC50
Outline: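 Human PD-L1-His (10 nM final) was pre-incubated with inhibitor for 15 min, then PD-1-Ig (20 nM final) was added for a further 15 min in dPBS with 0.1% BSA and 0.05% Tween-20. Binding was detected by HTRF using Eu-cryptate anti-Ig (1 nM) and APC anti-His (20 nM).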

T1 sequence (Q9NZQ7 with tags, fused parts or gaps): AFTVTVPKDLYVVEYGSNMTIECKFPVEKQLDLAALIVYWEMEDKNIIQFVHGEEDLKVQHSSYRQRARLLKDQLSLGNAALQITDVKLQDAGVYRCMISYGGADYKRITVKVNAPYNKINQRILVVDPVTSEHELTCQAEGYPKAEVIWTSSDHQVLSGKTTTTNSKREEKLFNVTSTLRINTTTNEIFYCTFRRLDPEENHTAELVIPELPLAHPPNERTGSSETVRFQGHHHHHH

IC50 (IC50 range class)	IC50 (numeric IC50)	Structure (SMILES)
0.04 to 20 nM		Cc1c(COc2cc(OCc3cncc(C#N)c3)c(Cl)cc2Cl)cccc1-c1cccc(COc2cc(OCc3cncc(C#N)c3)c(CN[C@](C)(CO)C(=O)O)cc2Cl)c1C [Example 70020]
0.04 to 20 nM		Cc1c(OCCCN2CCCC(C(N)=O)C2)cccc1-c1cccc(OCCCN2CC[C@@H](O)C2)c1C (stereo partly drawn) [Example 2019, 1-(3-((3′-(3-((R)-3-hydroxypyrrolidin-1-yl)propoxy)-2,2′-dimethyl-[1,1′-biphenyl]-3-yl)oxy)propyl)piperidine-3-carboxamide]
20.1 to 90 nM		Cc1c(COc2cc(OCc3cncc(C#N)c3)c(CNC(CC(=O)O)c3ccc(F)cc3)cc2Cl)cccc1-c1cccc(COc2cc(OCc3cncc(C#N)c3)c(CNC(CC(=O)O)c3ccc(F)cc3)cc2Cl)c1C (centres unmarked) [Example 40390]
20.1 to 90 nM		Cc1c(COc2cc(OCc3cncc(C#N)c3)c(CO)cc2Cl)cccc1-c1cccc(COc2cc(OCc3cncc(C#N)c3)c(CN[C@@H](CO)CC(=O)O)cc2Cl)c1C [Example 50310]
90.1 to 1000 nM		Cc1c(OCCCNCc2ccncc2)cccc1-c1cccc(OCCCN2CC[C@@H](O)C2)c1C [Example 2006, (R)-1-(3-((2,2′-dimethyl-3′-(3-((pyridin-4-ylmethyl)amino)propoxy)-[1,1′-biphenyl]-3-yl)oxy)propyl)pyrrolidin-3-ol]
0.04 to 20 nM		Cc1c(COc2cc(OCc3ccc(-n4cccn4)nc3)c(CN(C)[C@@](C)(CO)C(=O)O)cc2Cl)cccc1-c1cccc(COc2cc(OCc3ccc(-n4cccn4)nc3)c(CN(C)[C@@](C)(CO)C(=O)O)cc2Cl)c1C [Example 5027, (2S,2′S)-2,2′-((((((2,2′-dimethyl-[1,1′-biphenyl]-3,3′-diyl)bis(methylene))bis(oxy))bis(2-((6-(1H-pyrazol-1-yl)pyridin-3-yl)methoxy)-5-chloro-4,1-phenylene))bis(methylene))bis(methylazanediyl))bis(3-hydroxy-2-methylpropanoic acid)]
90.1 to 1000 nM		Cc1c(OCCCN(C)Cc2cccnc2)cccc1-c1cccc(OCCCN2CC[C@@H](O)C2)c1C [Example 2049, (R)-1-(3-((2,2′-dimethyl-3′-(3-(methyl(pyridin-3-ylmethyl)amino)propoxy)-[1,1′-biphenyl]-3-yl)oxy)propyl)pyrrolidin-3-ol]
90.1 to 1000 nM		Cc1c(COc2cc(OCc3cncc(C#N)c3)c(CN3C(=O)OCC3CO)cc2Cl)cccc1-c1cccc(COc2cc(OCc3cncc(C#N)c3)c(CN3C(=O)OCC3CO)cc2Cl)c1C (centres unmarked) [Example 2133, 5,5′-((((((2,2′-dimethyl-[1,1′-biphenyl]-3,3′-diyl)bis(methylene))bis(oxy))bis(4-chloro-6-((4-(hydroxymethyl)-2-oxooxazolidin-3-yl)methyl)-3,1-phenylene))bis(oxy))bis(methylene))dinicotinonitrile]
20.1 to 90 nM		Cc1c(COc2cc(OCc3cc(F)cc(F)c3)c(CN(C)[C@@](C)(CO)C(=O)O)cc2Cl)cccc1-c1cccc(COc2cc(OCc3cc(F)cc(F)c3)c(CN(C)[C@@](C)(CO)C(=O)O)cc2Cl)c1C [Example 5014, (2S,2′S)-2,2′-((((((2,2′-dimethyl-[1,1′-biphenyl]-3,3′-diyl)bis(methylene))bis(oxy))bis(5-chloro-2-((3,5-difluorobenzyl)oxy)-4,1-phenylene))bis(methylene))bis(methylazanediyl))bis(3-hydroxy-2-methylpropanoic acid)]

The next lines start with the compound.

Structure (SMILES)	IC50 (IC50 range class)	IC50 (numeric IC50)
Cc1c(OCCCN(C)CCOCCN(C)CCCOc2cccc(-c3cccc(OCCCN4CC[C@@H](O)C4)c3C)c2C)cccc1-c1cccc(OCCCN2CC[C@@H](O)C2)c1C [Example 2095, (3R,3′R)-1,1′-(((((((oxybis(ethane-2,1-diyl))bis(methylazanediyl))bis(propane-3,1-diyl))bis(oxy))bis(2,2′-dimethyl-[1,1′-biphenyl]-3′,3-diyl))bis(oxy))bis(propane-3,1-diyl))bis(pyrrolidin-3-ol)]	20.1 to 90 nM	
Cc1c(COc2cc(OCc3cncc(C(N)=O)c3)c(CN[C@@H](CCO)C(=O)O)cc2Cl)cccc1-c1cccc(COc2cc(OCc3cncc(C(N)=O)c3)c(CN[C@@H](CCO)C(=O)O)cc2Cl)c1C [Example 40870]	0.04 to 20 nM	
CC(=O)c1cc(Cl)c(OCc2cccc(-c3cccc(COc4cc(OCc5cncc(C#N)c5)c(CN[C@@](C)(CO)C(=O)O)cc4Cl)c3Cl)c2Cl)cc1OCc1cncc(C#N)c1 [Example 60080]	0.04 to 20 nM	
Cc1c(COc2cc(OCc3cncc(C#N)c3)c(CO)cc2Cl)cccc1-c1cccc(COc2cc(OCc3cncc(C#N)c3)c(CN[C@@H](CCO)C(=O)O)cc2Cl)c1C [Example 50150]	0.04 to 20 nM	
Cc1c(OCCCN2CCC[C@H](C(=O)O)C2)cccc1-c1cccc(OCCCN2CCC[C@H](C(=O)O)C2)c1C [Example 2082, (3S,3′S)-1,1′-(((2,2′-dimethyl-[1,1′-biphenyl]-3,3′-diyl)bis(oxy))bis(propane-3,1-diyl))bis(piperidine-3-carboxylic acid)]	90.1 to 1000 nM	
Cc1c(OCCCN(C)CCO)cccc1-c1cccc(OCCCN2CC[C@@H](O)C2)c1C [Example 2034, (R)-1-(3-((3′-(3-((2-hydroxyethyl)(methyl)amino)propoxy)-2,2′-dimethyl-[1,1′-biphenyl]-3-yl)oxy)propyl)pyrrolidin-3-ol]	20.1 to 90 nM	
Cc1c(OCCCN2CC[C@@H](O)C2)cccc1-c1cccc(OCCCN2CCC[C@H](O)C2)c1C [Example 2115, (S)-1-(3-((3′-(3-((R)-3-hydroxypyrrolidin-1-yl)propoxy)-2,2′-dimethyl-[1,1′-biphenyl]-3-yl)oxy)propyl)piperidin-3-ol]	20.1 to 90 nM	
Cc1c(OCCCNCC(O)C(C)(C)O)cccc1-c1cccc(OCCCNCC(O)C(C)(C)O)c1C (mixture of isomers) [Example 2029, 4,4′-((((2,2′-dimethyl-[1,1′-biphenyl]-3,3′-diyl)bis(oxy))bis(propane-3,1-diyl))bis(azanediyl))bis(2-methylbutane-2,3-diol)]	0.04 to 20 nM	
Cc1c(COc2cc(OCc3cncc(C#N)c3)c(CNCC(O)CC(=O)O)cc2Cl)cccc1-c1cccc(COc2cc(OCc3cncc(C#N)c3)c(CNCC(O)CC(=O)O)cc2Cl)c1C (centres unmarked) [Example 40230]	0.04 to 20 nM	
Cc1c(OCCCN(Cc2cncc(C#N)c2)C[C@H](O)CO)cccc1-c1cccc(OCCCN(Cc2cncc(C#N)c2)C[C@H](O)CO)c1C [Example 2099, 5,5′-(((((2,2′-dimethyl-[1,1′-biphenyl]-3,3′-diyl)bis(oxy))bis(propane-3,1-diyl))bis(((S)-2,3-dihydroxypropyl)azanediyl))bis(methylene))dinicotinonitrile]		1250 nM
Cc1c(OCCCNCCc2cccnc2)cccc1-c1cccc(OCCCNCCc2cccnc2)c1C [Example 2086, 3,3′-((2,2′-dimethyl-[1,1′-biphenyl]-3,3′-diyl)bis(oxy))bis(N-(2-(pyridin-3-yl)ethyl)propan-1-amine)]	0.04 to 20 nM	
Cc1c(OCCCN(C)CCCO)cccc1-c1cccc(OCCCN(C)CCCO)c1C [Example 2030, 3,3′-((((2,2′-dimethyl-[1,1′-biphenyl]-3,3′-diyl)bis(oxy))bis(propane-3,1-diyl))bis(methylazanediyl))bis(propan-1-ol)]	0.04 to 20 nM	
Cc1c(NC(=O)CCN2CC[C@@H](O)C2)cccc1-c1cccc(OCCCN2CC[C@@H](O)C2)c1C [Example 3013, 3-((R)-3-hydroxypyrrolidin-1-yl)-N-(3′-(3-((R)-3-hydroxypyrrolidin-1-yl)propoxy)-2,2′-dimethyl-[1,1′-biphenyl]-3-yl)propanamide]	1000 to 10000 nM	
Cc1c(COc2cc(OCc3cncc(C#N)c3)c(CO)cc2Cl)cccc1-c1cccc(COc2cc(OCc3cncc(C#N)c3)c(CNC(CO)CO)cc2Cl)c1C [Example 2129, 5-((4-chloro-5-((3′-((2-chloro-5-((5-cyanopyridin-3-yl)methoxy)-4-(((1,3-dihydroxypropan-2-yl)amino)methyl)phenoxy)methyl)-2,2′-dimethyl-[1,1′-biphenyl]-3-yl)methoxy)-2-(hydroxymethyl)phenoxy)methyl)nicotinonitrile]	90.1 to 1000 nM	
Cc1c(OCCCNCCc2cccnc2)cccc1-c1cccc(OCCCN2CC[C@@H](O)C2)c1C [Example 2022, (R)-1-(3-((2,2′-dimethyl-3′-(3-((2-(pyridin-3-yl)ethyl)amino)propoxy)-[1,1′-biphenyl]-3-yl)oxy)propyl)pyrrolidin-3-ol]	0.04 to 20 nM	
Cc1c(COc2cc(OCc3ccc(-n4cccn4)nc3)c(CN[C@@](C)(CO)C(=O)O)cc2Cl)cccc1-c1cccc(COc2cc(OCc3ccc(-n4cccn4)nc3)c(CN[C@@](C)(CO)C(=O)O)cc2Cl)c1C [Example 5022, (2S,2′S)-2,2′-((((((2,2′-dimethyl-[1,1′-biphenyl]-3,3′-diyl)bis(methylene))bis(oxy))bis(2-((6-(1H-pyrazol-1-yl)pyridin-3-yl)methoxy)-5-chloro-4,1-phenylene))bis(methylene))bis(azanediyl))bis(3-hydroxy-2-methylpropanoic acid)]	0.04 to 20 nM	
Cc1c(OCCCNC[C@H](O)CO)cccc1-c1cccc(OCCCN2CCC[C@H](C(=O)O)C2)c1C [Example 2081, (S)-1-(3-((3′-(3-(((S)-2,3-dihydroxypropyl)amino)propoxy)-2,2′-dimethyl-[1,1′-biphenyl]-3-yl)oxy)propyl)piperidine-3-carboxylic acid]	20.1 to 90 nM	
CSCCC(NCc1cc(Cl)c(OCc2cccc(-c3cccc(COc4cc(OCc5cncc(C#N)c5)c(CNC(CCSC)C(=O)O)cc4Cl)c3C)c2C)cc1OCc1cncc(C#N)c1)C(=O)O (centres unmarked) [Example 40450]	0.04 to 20 nM	
N#Cc1cncc(COc2cc(OCc3cccc(-c4cccc(COc5cc(OCc6cncc(C#N)c6)c(C(=O)NCCCO)cc5Cl)c4Cl)c3Cl)c(Cl)cc2C(=O)O)c1 [Example 90030]	20.1 to 90 nM	
C[C@@](CO)(NCc1cc(Cl)c(OCc2cccc(-c3cccc(COc4cc(OCc5cncc(C#N)c5)c(CN[C@@](C)(CO)C(=O)O)cc4Cl)c3Cl)c2Cl)cc1OCc1cncc(C#N)c1)C(=O)O [Example 40140]	0.04 to 20 nM	
